The subject of one test is Aphis gossypii. Nature of the test: Soil drenching with single agent and admixture on cucumber against Aphis gossypii (Test Example 8). In kind it is in vivo. Conditions: for Preventive value: 2 days after release. As to the method:
Cucumber seedlings were treated by soil drenching with a single agent and an admixture adjusted to a predetermined concentration with water. The chemical was absorbed through the root for two days, and four adults of Aphis gossypii for each seedling were released on the seedlings. Thereafter, the seedlings were allowed to stand in a thermostatic chamber of 25° C. 2 days after the release, the number of parasites on the leaves was observed. The density index in each treated plot was determined by presuming the density in the non-treated plot to be 100. The preventive value was calculated by the following equation. Preventive value=100−density index
(§1) When the density index exceeded 100, the preventive value was regarded as 0 (zero).
(§2) Theoretical value=A+B−(A×B)/100 Colby's formula
(§3) where A: preventive value when treatment was performed only with compound 4, and
B: preventive value when treatment was performed only with each of acephate and imidacloprid.
When the numerical value for the admixture in Table 10 exceeded the theoretical value calculated by the Colby's formula shown in Table 11, the admixture was determined to have a synergistic effect.

The subject of test [1] is Rhopalosiphum padi. Nature of the test: Root soaking with single agent and admixture on wheat against Rhopalosiphum padi (Test Example 9). Conditions: for Preventive value: six days after release. In kind it is in vivo. As to the method: The root of wheat seedlings 48 hr after seeding was soaked for 72 hr in an admixture solution, adjusted to a predetermined concentration, as a 10% aqueous acetone solution. 72 hrs after the treatment, 10 larval Rhopalosiphum padi for each seedling were released on the seedlings. Thereafter, the seedlings were allowed to stand in a thermostatic chamber of 25° C. The number of parasites on stems and leaves was observed six days after the release. The density index of each of the treated plots was determined by presuming the density of the non-treated plots to be 100, and the preventive value was calculated by the same equation as in Test Example 8.
as §1, §2, §3
B: preventive value when treatment was performed only with each of acetamiprid, acephate, and imidacloprid.
When the preventive value against Rhopalosiphum padi for the admixture in Table 12 exceeded the theoretical value calculated by the Colby's formula shown in Table 13, the admixture was determined to have a synergistic effect.

Test [2] deals with Rhopalosiphum padi. Nature of the test: Root soaking treatment test on wheat seedlings against Rhopalosiphum padi (Test Example 3 and Comparative Tests). In kind it is in vivo. Conditions: wheat seedling root soaked 72 hr in test solution (100 ppm), 20 μg/seedling, 25° C. How it is done: The root of wheat seedlings 48 hr after seeding was soaked for 72 hr in a test solution (100 ppm) prepared as a 10% aqueous acetone solution. 72 hrs after the treatment, 10 larval Rhopalosiphum padi were released for each seedling. Thereafter, the seedlings were allowed to stand in a thermostatic chamber of 25° C. The number of parasites on stems and leaves was observed six days after the release, and the density index was calculated by the same equation as in Test Example 1. The test was duplicated.
For compounds 8 and 9 described in Table 6, a insecticidal effect against Rhopalosiphum padi was examined in the same manner as in Test Example 3.

In a further test the test system is Myzus persicae Sulzer. Nature of the test: Reference Test: cabbage leaf disk spraying treatment against Myzus persicae Sulzer. The format is in vivo. Conditions: 20 ppm test solution spread over cabbage leaf disk, first instar larvae, three days after release, 25° C. From the text:
A leaf disk having a diameter of 2.8 cm was cut out from a cabbage grown in a pot and was placed in a 5.0 cm-Schale. Four adult aphids of Myzus persicae Sulzer were released in the Schale. One day after the release of the adult aphids, the adult aphids were removed. The number of larvae at the first instar born in the leaf disk was adjusted to 10, and 20 ppm of a test solution which had been prepared as a 50% aqueous acetone solution (0.05% Tween 20 added) was spread over the cabbage leaf disk. The cabbage leaf disk was then air dried. Thereafter, the Schale was lidded and was allowed to stand in a thermostatic chamber of 25° C. […] Mortality (%)={number of dead larvae/(number of survived larvae+number of dead larvae)}×100

The next test deals with Plutella xylostella. As to conditions: described in WO 2004/060065 and Applied and Environmental Microbiology (1995), 61(12), 4429-35; cited from earlier work.
For the next test, the system named is Helicoverpa armiger. As to conditions: described in WO 2004/060065 and Applied and Environmental Microbiology (1995), 61(12), 4429-35; cited from earlier work.
The next test relates to Tenebrio molitor. Conditions: described in WO 2004/060065 and Applied and Environmental Microbiology (1995), 61(12), 4429-35; cited from earlier work.
The next test concerns Nephotettix cincticeps. Nature of the test: Soil drenching treatment test on rice seedlings against Nephotettix cincticeps (Test Example 7). In kind it is in vivo. As to conditions: soil drenching of rice pot, 1.0 mg/seedling, second instar larvae, 3 days after release. As to the method:
Rice seedlings grown in a pot were provided. Soil in the pot was drenched with a test solution adjusted to a predetermined concentration with a 10% aqueous acetone solution. After standing for three days, 10 larvae at the second instar were released on the rice seedling. Thereafter, the pot was allowed to stand in a thermostatic chamber of 25° C. (light period 16 hr-dark period 8 hr). 3 days after the release, the number of survived larvae was measured, and the mortality of larvae was calculated by the same equation as in the Reference Test. The test was duplicated.

The test system of test [3] is Trialeurodes uaporariorum. Nature of the test: Soil drenching treatment test on cucumber against Trialeurodes uaporariorum (Test Example 5). The format is in vivo. Conditions: soil drenching of cucumber pot, 0.5 mg/seedling, larvae, 9 days after drenching. As to the method:
Adults of Trialeurodes uaporariorum were released on cucumber seedlings, grown in a pot, for egg laying purposes for two days. 10 days after the start of egg laying, it was confirmed that larvae were hatched from the delivered eggs. The soil in the cucumber pot was drenched with 5 mL of a test solution adjusted to a predetermined concentration with a 10% aqueous acetone solution. The cucumber pot was allowed to stand in a thermostatic chamber of 25° C. (light period 16 hr-dark period 8 hr). 9 days after the drenching, the number of survived larvae was measured, and the mortality of larvae was calculated by the following equation. The test was duplicated. Mortality (%)={(number of larvae before treatment−number of survived larvae)/number of larvae before treatment}×100

Another test relates to Laodelphax stratella. Nature of the test: Soil drenching treatment test on rice seedlings against Laodelphax stratella (Test Example 6). In kind it is in vivo. Conditions: soil drenching of rice pot, 0.5 mg/seedling, second instar larvae, 3 days after release. As to the method: Rice seedlings grown in a pot were provided. Soil in the pot was drenched with a test solution adjusted to a predetermined concentration with a 10% aqueous acetone solution. After standing for three days, 10 larvae at the second instar were released on the rice seedlings. Thereafter, the pot was allowed to stand in a thermostatic chamber of 25° C. (light period 16 hr-dark period 8 hr). 3 days after the release, the number of survived larvae was measured, and the mortality of larvae was calculated by the same equation as in the Reference Test. The test was duplicated.

The mark [4] stands for this setting: Compound 4 0 mg/seedling, acephate 0.1 mg/seedling, imidacloprid 0.005 mg/seedling.
Setting [5] is: Compound 4 0 mg/seedling, other insecticide alone (acephate 0.1 mg/seedling, imidacloprid 0.005 mg/seedling).
Setting [6] is: Compound 4 0 μg/seedling, acetamiprid 0.0078, acephate 0.5, imidacloprid 0.0078 μg/seedling.
Where [7] appears, read: Compound 4 0 μg/seedling, other insecticide alone (acetamiprid 0.0078, acephate 0.5, imidacloprid 0.0078 μg/seedling).
Setting [8] is: Compound 4 0.05 mg/seedling, alone (—) or with acephate 0.1 mg/seedling or imidacloprid 0.005 mg/seedling.
The mark [9] stands for this setting: Compound 4 0.5 μg/seedling, alone (—) or with acetamiprid 0.0078, acephate 0.5 or imidacloprid 0.0078 μg/seedling.

On to `O=[N+]([O-])NC1=NCCN1Cc1ccc(Cl)nc1` [Imidacloprid, imidacloprid], for which the “Theoretical value calculated by Colby's formula” value (shortened to “Theoretical value calculated”) in the test with Aphis gossypii (setting [4]) was 16; in the test on Rhopalosiphum padi [1] (setting [6]) it was 28.6. Further, the Preventive value in the test on Aphis gossypii (setting [5]) was 16; in the test on Rhopalosiphum padi [1] (setting [7]), 28.6.
In the case of `CC1(COC(=O)C2CC2)C2CC(=O)[C@@]3(C)Oc4cc(-c5cccnc5)oc(=O)c4[C@H](O)C3[C@@]2(C)CC[C@@H]1OC(=O)C1CC1` (some centres unmarked) [Compound 6], in the test on Rhopalosiphum padi [2], the “Density index 6 days after release” value worked out at 0. Moreover, the Mortality in the test with Myzus persicae Sulzer came out at 100%.
On to `CC1(COC(=O)C2CC2)C2CC[C@@]3(C)Oc4cc(-c5cccnc5)oc(=O)c4[C@H](O)C3[C@@]2(C)CC[C@@H]1OC(=O)C1CC1` (some centres unmarked) [Compound 7], for which the “Density index 6 days after release” value in the test on Rhopalosiphum padi [2] is on record as 41. The molecule further gave a Mortality with Myzus persicae Sulzer of 100%.
As for pyripyropene A, the insecticidal effect entry in the test on Plutella xylostella, with Helicoverpa armiger and in the test on Tenebrio molitor was “has insecticidal effect” each time.
As to `CC1(COC(=O)C2CC2)C2C[C@H](O)[C@@]3(C)Oc4cc(-c5cccnc5)oc(=O)c4[C@H](O)C3[C@@]2(C)CC[C@@H]1OC(=O)C1CC1` (some centres unmarked) [Compound 4], the “Theoretical value calculated” value with Aphis gossypii (setting [8]) and in the test on Rhopalosiphum padi [1] (setting [9]) was 0 throughout. The Preventive value in the test with Aphis gossypii (setting [8]) and with Rhopalosiphum padi [1] (setting [9]) was 0 throughout. The “Mortality (%)” value in the test with Nephotettix cincticeps is 60%; in test [3] it was 67%; in the test on Laodelphax stratella, 34%. Besides, the “Density index 6 days after release” value in the test with Rhopalosiphum padi [2] is given as 5. The molecule also showed a Mortality in the test with Myzus persicae Sulzer of 100%.
`COP(=O)(NC(C)=O)SC` (centres unmarked) [Acephate, acephate]: the “Theoretical value calculated” value with Aphis gossypii (setting [4]) is 70; in the test on Rhopalosiphum padi [1] (setting [6]), 55.6. In addition, the Preventive value with Aphis gossypii (setting [5]) came to 70; in the test with Rhopalosiphum padi [1] (setting [7]), 55.6.
As for `C/C(=N\C#N)N(C)Cc1ccc(Cl)nc1` [Acetamiprid, acetamiprid], the “Theoretical value calculated” value with Rhopalosiphum padi [1] (setting [6]) is on record as 5.9. In addition, the Preventive value with Rhopalosiphum padi [1] (setting [7]) was determined as 5.9.

The values are drawn from patent publication US9434739B2, “Systemic insecticide” (priority 2007, dated 2016).
